Data published in US20190046552A1, “COMPOSITIONS AND METHODS FOR THE TREATMENT OF HCV INFECTION” (priority 2015, published 2019).
Where two headings read alike, the source gives them in different places.

Assay: Part A (SAD): plasma PK of Formula (IIa) and its metabolites after a single oral dose of Formula (IIa), fed or fasted
Format: in vivo, human
Conditions: for Cmax / AUC(0-t) / Tmax / AUC(0-inf) / half-life: human, in vivo; for Cmax / AUC(0-t) / Tmax: po
Protocol: The study was a Phase 1, two-part, first-in-human study of single (Part A) and multiple (Part B) ascending doses (SAD and MAD) of Formula (IIa) at doses of 100-900 mg given as a monotherapy for up to 7 days. Subjects were enrolled at multiple sites in Australia and New Zealand. For both Parts A and B, the Safety Review Committee (SRC) determined whether dose escalation occurred after review of all safety data and any available PK/PD data. Part A was an open label, randomized SAD study consisting of four cohorts of two subjects each, with one subject randomized to be dosed in the fed state and the other in the fasted state, at doses of 100 mg to 800 mg Formula (IIa). All subjects were given a single dose of Formula (IIa) orally.
All plasma PK calculations were performed using actual time points calculated relative to the time of last drug administration.
PK analysis was conducted for all enrolled subjects that received any dose of Formula (IIa) with sufficient plasma sample data to assess PK parameters. […] Data analysis was performed using a validated version of WinNonlin® Enterprise (Version 5.2) software, and summary tables and figures were generated using a validated version of WinNonlin® Autopilot™ (Version 1.1.1) and other reporting tools, including SigmaPlot®.

CO[C@H]1C(OP(=O)(OC[C@H]2O[C@@H](n3cnc4c(N)ncnc43)CC2O)SCOC(=O)OC(C)C)[C@@H](CO)O[C@H]1n1ccc(=O)[nH]c1=O (stereo partly drawn) [Formula (IIa)] gave a Cmax (200 mg, single oral 200 mg Formula (IIa), fasted, plasma, N=1) of 0.577 ng/mL, an AUC(0-t) (200 mg, single oral 200 mg Formula (IIa), fasted, plasma, N=1, read-out: AUC0-24) of 0.433 ng·h/mL and an AUC(0-t) (200 mg, single oral 200 mg Formula (IIa), fasted, plasma, N=1, read-out: AUC0-t) of 0.289 ng·h/mL. For the same compound, the Tmax (200 mg, single oral 200 mg Formula (IIa), fasted, plasma, N=1, read-out: Tmax) was 1 h, the Cmax (200 mg, single oral 200 mg Formula (IIa), fed, plasma, N=1) was 0.261 ng/mL and the AUC(0-t) (200 mg, single oral 200 mg Formula (IIa), fed, plasma, N=1, read-out: AUC0-24) was 0.131 ng·h/mL. For the same compound, the AUC(0-t) (200 mg, single oral 200 mg Formula (IIa), fed, plasma, N=1, read-out: AUC0-t) was 0.0653 ng·h/mL, the Tmax (200 mg, single oral 200 mg Formula (IIa), fed, plasma, N=1, read-out: Tmax) was 2 h and the Cmax (400 mg, single oral 400 mg Formula (IIa), fasted, plasma, N=1) was 1.16 ng/mL. The AUC(0-t) (400 mg, single oral 400 mg Formula (IIa), fasted, plasma, N=1, read-out: AUC0-24) was 1.37 ng·h/mL, the AUC(0-t) (400 mg, single oral 400 mg Formula (IIa), fasted, plasma, N=1, read-out: AUC0-t) was 1.31 ng·h/mL and the Tmax (400 mg, single oral 400 mg Formula (IIa), fasted, plasma, N=1, read-out: Tmax) was 2.5 h. It also gave a Cmax (400 mg, single oral 400 mg Formula (IIa), fed, plasma, N=1) of 0.574 ng/mL, an AUC(0-t) (400 mg, single oral 400 mg Formula (IIa), fed, plasma, N=1, read-out: AUC0-24) of 1.13 ng·h/mL and an AUC(0-t) (400 mg, single oral 400 mg Formula (IIa), fed, plasma, N=1, read-out: AUC0-t) of 1.07 ng·h/mL. The Tmax (400 mg, single oral 400 mg Formula (IIa), fed, plasma, N=1, read-out: Tmax) was 1.5 h, the Cmax (800 mg, single oral 800 mg Formula (IIa), fasted, plasma, N=1) was 0.734 ng/mL and the AUC(0-t) (800 mg, single oral 800 mg Formula (IIa), fasted, plasma, N=1, read-out: AUC0-24) was 0.809 ng·h/mL. The AUC(0-t) (800 mg, single oral 800 mg Formula (IIa), fasted, plasma, N=1, read-out: AUC0-t) was 0.751 ng·h/mL, the Tmax (800 mg, single oral 800 mg Formula (IIa), fasted, plasma, N=1, read-out: Tmax) was 1 h and the Cmax (800 mg, single oral 800 mg Formula (IIa), fed, plasma, N=1) was 0.486 ng/mL. The AUC(0-t) (800 mg, single oral 800 mg Formula (IIa), fed, plasma, N=1, read-out: AUC0-24) was 0.96 ng·h/mL, the AUC(0-t) (800 mg, single oral 800 mg Formula (IIa), fed, plasma, N=1, read-out: AUC0-t) was 0.9 ng·h/mL and the Tmax (800 mg, single oral 800 mg Formula (IIa), fed, plasma, N=1, read-out: Tmax) was 1.5 h. It also gave a Tmax (single oral Formula (IIa), subjects dosed under fasted conditions, read-out: Individual Tmax range) of 1 to 2.5 h, a Tmax (single oral Formula (IIa), subjects dosed under fed conditions, read-out: Individual Tmax range) of 1.5 to 2 h and an AUC(0-inf) (single oral 400 mg Formula (IIa), fed, plasma, N=1) of 1.43 ng·h/mL. For the same compound, the half-life (single oral 400 mg Formula (IIa), fed, plasma, N=1, read-out: t1/2 (converted)) was 1.16 h, the AUC(0-inf) (single oral 800 mg Formula (IIa), fed, plasma, N=1) was 1.39 ng·h/mL and the half-life (single oral 800 mg Formula (IIa), fed, plasma, N=1, read-out: t1/2 (converted)) was 1.42 h. The half-life (two fed subjects (400 mg and 800 mg dose cohorts), read-out: half-life (terminal phase), range) was 1.16 to 1.42 h, the “measurable Formula (IIa) concentrations in plasma” value (single oral 100 mg Formula (IIa), fasting and fed) was “no measurable Formula (IIa) concentrations” and the “AUC0-t in the fasted subject higher than the fed subject” value (single oral 200 mg Formula (IIa)) was 4 fold. The “peak plasma concentrations in the fasted subjects, times higher compared to the fed subjects” value (single oral 400 mg Formula (IIa)) was 2.0 times, the “peak plasma concentrations in the fasted subjects, times higher compared to the fed subjects” value (single oral 800 mg Formula (IIa)) was 1.5 times and the “measurable concentrations of Formula (IIa) in plasma” value (single oral dose levels of 100 mg and 200 mg) was “did not produce measurable concentrations”.
